Test results reported in patent publication US20090270407A1, “FUNGICIDAL ISOXAZOLIDINES” (E. I. DU PONT DE NEMOURS AND COMPANY, priority 2008, published 2009).
Marks after values point to notes of the source that are not given here.

Tests used:
Conditions in all cases: 100 = 100 % disease control, 0 = no disease control relative to controls
Botrytis cinerea = test: Test E: tomato Botrytis, preventive spray on tomato seedlings, visual disease rating
Source text: General protocol for preparing test suspensions for Tests A-I: The test compounds were first dissolved in acetone in an amount equal to 3% of the final volume and then suspended at the desired concentration (in ppm) in acetone and purified water (50/50 mix) containing 250 ppm of the surfactant Trem® 014 (polyhydric alcohol esters). The resulting test suspensions were then used in Tests A-I. Spraying a 200 ppm test suspension to the point of run-off on the test plants was the equivalent of a rate of 500 g/ha.
The test suspension was sprayed to the point of run-off on tomato seedlings. The following day the seedlings were inoculated with a spore suspension of Botrytis cinerea (the causal agent of tomato Botrytis) and incubated in saturated atmosphere at 20° C. for 48 h, and then moved to a growth chamber at 24° C. for 3 additional days, after which time visual disease ratings were made.
All results are for 200 ppm except where followed by “*” which indicates 40 ppm.

Alternaria solani = test: Test F: tomato early blight, preventive spray on tomato seedlings, visual disease rating
Septoria tritici = test: Test D: wheat leaf blotch, preventive spray on wheat seedlings, visual disease rating; format: in vivo
Source text: A dash (−) indicates no test results.

Septoria nodorum = test: Test C: wheat glume blotch, preventive spray on wheat seedlings, visual disease rating
Protocol: (An asterisk “*” next to the rating value indicates a 40 ppm test suspension.)
The test suspension was sprayed to the point of run-off on wheat seedlings. The following day the seedlings were inoculated with a spore suspension of Septoria nodorum (the causal agent of wheat glume blotch) and incubated in a saturated atmosphere at 20° C. for 48 h, and then moved to a growth chamber at 20° C. for 7 days, after which time visual disease ratings were made.
A dash (−) indicates no test results. All results are for 200 ppm except where followed by “*” which indicates 40 ppm.

[1] = test system: Puccinia recondita f. sp. tritici; test: Test B: wheat leaf rust, preventive spray on wheat seedlings, visual disease rating
[2] = test system: Erysiphe graminis f. sp. tritici; test: Test A: wheat powdery mildew, preventive spray on wheat seedlings, visual disease rating
Source text: General protocol for preparing test suspensions for Tests A-I: The test compounds were first dissolved in acetone in an amount equal to 3% of the final volume and then suspended at the desired concentration (in ppm) in acetone and purified water (50/50 mix) containing 250 ppm of the surfactant Trem® 014 (polyhydric alcohol esters). The resulting test suspensions were then used in Tests A-I. Spraying a 200 ppm test suspension to the point of run-off on the test plants was the equivalent of a rate of 500 g/ha. (An asterisk “*” next to the rating value indicates a 40 ppm test suspension.)
The test suspension was sprayed to the point of run-off on wheat seedlings. The following day the seedlings were inoculated with a spore dust of Erysiphe graminis f. sp. tritici (the causal agent of wheat powdery mildew) and incubated in a growth chamber at 20° C. for 8 days, after which time visual disease ratings were made.

| SMILES | Test E disease control rating (Botrytis cinerea; 40 ppm (marked *)) | Test F disease control rating (Alternaria solani; 40 ppm (marked *)) | Test D disease control rating (Septoria tritici; 40 ppm (marked *)) | Test C disease control rating (Septoria nodorum; 40 ppm (marked *)) | Test B disease control rating ([1]; 40 ppm (marked *)) | Test A disease control rating ([2]; 40 ppm (marked *)) | Test E disease control rating (Botrytis cinerea; 200 ppm) [%] | Test F disease control rating (Alternaria solani; 200 ppm) [%] | Test D disease control rating (Septoria tritici; 200 ppm) [%] | Test C disease control rating (Septoria nodorum; 200 ppm) [%] | Test B disease control rating ([1]; 200 ppm) [%] | Test A disease control rating ([2]; 200 ppm) [%] |
| --- | --- | --- | --- | --- | --- | --- | --- | --- | --- | --- | --- | --- |
| CN1OC(C)(c2cccnc2)CC1c1ccc(-n2cc(I)cn2)cc1 (stereo not drawn) [Compound 57] | 0* % | 0* % | 57* % | 0* % | 0* % | 0* % |  |  |  |  |  |  |
| CN1OC(C)(c2cccnc2)CC1c1ccc(-n2nc(C(F)(F)F)cc2C(F)(F)F)cc1 (stereo not drawn) [Compound 58] | 0* % | 8* % | 91* % | 0* % | 0* % | 80* % |  |  |  |  |  |  |
| CN1OC(C)(c2cccnc2)CC1c1ccc(-n2nc(C(F)(F)F)cc2C(F)(F)F)cc1 (stereo not drawn) [Compound 59] | 0* % | 0* % | 2* % | 0* % | 0* % | 52* % |  |  |  |  |  |  |
| CN1OC(C)(c2cccnc2)CC1c1ccc(-c2ccncc2)cc1 (stereo not drawn) [Compound 60] | 29* % | 0* % | 3* % | 0* % | 0* % | 0* % |  |  |  |  |  |  |
| CN1OC(C)(c2cccnc2)CC1c1ccc(-c2ccncc2)cc1 (stereo not drawn) [Compound 61] | 0* % | 0* % | 5* % | 0* % | 0* % | 0* % |  |  |  |  |  |  |
| CN1OC(C)(c2cccnc2)CC1c1cccc(Br)c1 (stereo not drawn) [Compound 64] |  |  |  |  |  |  | 0 | 0 | 45 | 0 | 0 | 64 |
| CN1OC(C)(c2cccnc2)CC1c1ccccc1Br (stereo not drawn) [Compound 65] |  |  |  |  |  |  | 0 | 0 | 5 | 0 | 0 | 0 |
| CN1OC(C)(c2cccnc2)CC1c1ccccc1Br (stereo not drawn) [Compound 66] |  |  |  |  |  |  | 0 | 0 | 5 | 0 | 0 | 0 |
| CN1OC(C)(c2cccnc2)CC1c1cccc(Br)c1 (stereo not drawn) [Compound 67] |  |  |  |  |  |  | 34 | 0 | 8 | 0 | 0 | 47 |
| Cc1cnn(-c2ccc(C3CC(C)(c4cccnc4)ON3C)cc2)c1 (stereo not drawn) [Compound 69] | 87* % | 99* % | 12* % | 97* % | 0* % | 0* % |  |  |  |  |  |  |
| CN1OC(C)(c2cccnc2)CC1c1ccc(-n2nc(C(F)(F)F)cc2-c2ccccn2)cc1 (stereo not drawn) [Compound 70] | 0* % | 72* % | 54* % | 0* % | 26* % | 0* % |  |  |  |  |  |  |
| CN1OC(C)(c2cccnc2)CC1c1ccc(-n2nc(C(F)(F)F)cc2-c2ccccn2)cc1 (stereo not drawn) [Compound 71] | 0* % | 12* % | 10* % | 0* % | 28* % | 0* % |  |  |  |  |  |  |
| CN1OC(c2cccnc2)CC1c1ccc(-n2ccc(C(F)(F)F)n2)cc1 (stereo not drawn) [Compound 72] | 96* % | 94* % | 93* % | 100* % | 100* % | 99* % |  |  |  |  |  |  |
| CN1OC(C)(c2cccnc2)CC1c1ccc(-n2nc(-c3ccccn3)cc2C(F)(F)F)cc1 (stereo not drawn) [Compound 74] | 0* % | 0* % | 2* % | 0* % | 22* % | 0* % |  |  |  |  |  |  |
| CN1OC(C)(c2cccnc2)CC1c1ccc(-n2nc(-c3ccccn3)cc2C(F)(F)F)cc1 (stereo not drawn) [Compound 75] | 0* % | 0* % | 19* % | 0* % | 22* % | 0* % |  |  |  |  |  |  |
| CN1OC(C)(c2cccnc2)CC1c1cccc(Cl)c1 (stereo not drawn) [Compound 76] |  |  |  |  |  |  | 85 | 9 | 34 | 0 | 0 | 84 |

| SMILES | Test E disease control rating (Botrytis cinerea; 40 ppm (marked *)) | Test F disease control rating (Alternaria solani; 40 ppm (marked *)) | Test D disease control rating (Septoria tritici; 40 ppm (marked *)) | Test C disease control rating (Septoria nodorum; 40 ppm (marked *)) | Test B disease control rating ([1]; 40 ppm (marked *)) | Test A disease control rating ([2]; 40 ppm (marked *)) | Test E disease control rating (Botrytis cinerea; 200 ppm) [%] | Test F disease control rating (Alternaria solani; 200 ppm) [%] | Test D disease control rating (Septoria tritici; 200 ppm) [%] | Test C disease control rating (Septoria nodorum; 200 ppm) [%] | Test B disease control rating ([1]; 200 ppm) [%] | Test A disease control rating ([2]; 200 ppm) [%] |
| --- | --- | --- | --- | --- | --- | --- | --- | --- | --- | --- | --- | --- |
| CN1OC(C)(c2cccnc2)CC1c1cccc(Cl)c1 (stereo not drawn) [Compound 77] |  |  |  |  |  |  | 0 | 0 | 62 | 0 | 0 | 0 |
| CN1OC(C)(c2cccnc2)CC1c1ccccc1F (stereo not drawn) [Compound 78] |  |  |  |  |  |  | 0 | 0 | 16 | 0 | 0 | 0 |
| CN1OC(C)(c2cccnc2)CC1c1ccccc1F (stereo not drawn) [Compound 79] |  |  |  |  |  |  | 0 | 0 | 7 | 22 | 27 | 0 |
| CN1OC(C)(c2cccnc2)CC1c1ccc(F)c(F)c1 (stereo not drawn) [Compound 81] |  |  |  |  |  |  | 78 | 0 | 15 | 0 | 0 | 56 |
| CN1OC(C)(c2cccnc2)CC1c1ccc(F)c(F)c1 (stereo not drawn) [Compound 82] |  |  |  |  |  |  | 0 | 0 | 40 | 0 | 18 | 0 |
| CN1OC(C)(c2cccnc2)CC1c1ccc(Br)cc1Br (stereo not drawn) [Compound 83] |  |  |  |  |  |  | 82 | 56 | 91 | 81 | 0 | 98 |
| CN1OC(C)(c2cccnc2)CC1c1ccc(Br)cc1Br (stereo not drawn) [Compound 84] |  |  |  |  |  |  | 43 | 0 | 52 | 60 | 27 | 94 |
| COc1cc(Br)ccc1C1CC(C)(c2cccnc2)ON1C (stereo not drawn) [Compound 85] |  |  |  |  |  |  | 0 | 92 | 89 | 64 | 0 | 90 |
| COc1cc(Br)ccc1C1CC(C)(c2cccnc2)ON1C (stereo not drawn) [Compound 86] |  |  |  |  |  |  | 0 | 0 | 76 | 0 | 9 | 91 |
| CN1OC(C)(c2cccnc2)CC1c1cccc2c1OC(F)(F)O2 (stereo not drawn) [Compound 91] |  |  |  |  |  |  | 0 | 0 | 0 | 0 | 0 | 0 |
| CN1OC(C)(c2cccnc2)CC1c1ccccc1Cl (stereo not drawn) [Compound 92] |  |  |  |  |  |  | 0 | 0 | 22 | 0 | 0 | 0 |
| CN1OC(C)(c2cccnc2)CC1c1ccccc1Cl (stereo not drawn) [Compound 93] |  |  |  |  |  |  | 0 | 0 | 3 | 0 | 0 | 0 |
| CN1OC(C)(c2cccnc2)CC1c1cccc(F)c1 (stereo not drawn) [Compound 94] |  |  |  |  |  |  | 0 | 0 | 4 | 0 | 0 | 84 |
| CN1OC(C)(c2cccnc2)CC1c1ccc(Br)cc1F (stereo not drawn) [Compound 96] |  |  |  |  |  |  | 0 | 0 | 77 | 78 | 0 | 48 |
| CN1OC(C)(c2cccnc2)CC1c1ccc(Br)c(F)c1 (stereo not drawn) [Compound 101] |  |  |  |  |  |  | 100 | 99 | 68 | 86 | 0 | 99 |
